Results as given in publication PMC11180509 (The Journal of Clinical Endocrinology and Metabolism, 2024).

Test: Plasma concentration of intact GIP after subcutaneous GIP injection
Format: in vivo, human

## CC[C@H](C)[C@H](NC(=O)[C@H](CO)NC(=O)[C@H](Cc1ccc(O)cc1)NC(=O)[C@H](CC(=O)O)NC(=O)[C@H](CO)NC(=O)[C@@H](NC(=O)[C@H](Cc1ccccc1)NC(=O)[C@@H](NC(=O)CNC(=O)[C@H](CCC(=O)O)NC(=O)[C@H](C)NC(=O)[C@@H](N)Cc1ccc(O)cc1)[C@@H](C)O)[C@@H](C)CC)C(=O)N[C@@H](C)C(=O)N[C@@H](CCSC)C(=O)N[C@@H](CC(=O)O)C(=O)N[C@@H](CCCCN)C(=O)N[C@H](C(=O)N[C@@H](Cc1c[nH]cn1)C(=O)N[C@@H](CCC(N)=O)C(=O)N[C@@H](CCC(N)=O)C(=O)N[C@@H](CC(=O)O)C(=O)N[C@@H](Cc1ccccc1)C(=O)N[C@H](C(=O)N[C@@H](CC(N)=O)C(=O)N[C@@H](Cc1c[nH]c2ccccc12)C(=O)N[C@@H](CC(C)C)C(=O)N[C@@H](CC(C)C)C(=O)N[C@@H](C)C(=O)N[C@@H](CCC(N)=O)C(=O)N[C@@H](CCCCN)C(=O)NCC(=O)N[C@@H](CCCCN)C(=O)N[C@@H](CCCCN)C(=O)N[C@@H](CC(N)=O)C(=O)N[C@@H](CC(=O)O)C(=O)N[C@@H](Cc1c[nH]c2ccccc12)C(=O)N[C@@H](CCCCN)C(=O)N[C@@H](Cc1c[nH]cn1)C(=O)N[C@@H](CC(N)=O)C(=O)N[C@H](C(=O)N[C@H](C(=O)N[C@@H](CCC(N)=O)C(=O)O)[C@@H](C)O)[C@@H](C)CC)C(C)C)[C@@H](C)CC [GIP, Human GIP(1-42)]
Fasting men with T2D, n = 10, 200 µg GIP subcutaneous bolus
  Time until plasma intact GIP returned to basal level: about 150 minutes
male, human, plasma, sc, 200 ug
  Tmax: 30 min
male, human, plasma, sc, 200 ug, SEM
  Cmax: 0.055 ± 0.0058 nM
